Assay results from US11109593B2, “Isoxazolin-5-one derivative and herbicide containing same as active ingredient” (HOKKO CHEMICAL INDUSTRY CO., LTD., priority 2017, dated 2021).

The compounds below were run on Echinochloa crus-galli (assay: Test Example 1: herbicidal effect test by treatment of rice paddy soil (immediately after seeding)). Settings: 120 g/10a active ingredient, dry weight vs untreated area, 14 days after treatment.
Type: in vivo
Summary of the method: (§1)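 Applied at 120 g a.i./10 ares as diluted emulsion dropped into flooded (~3 cm) paddy soil pots right after sowing seeds 0–1 cm deep; greenhouse, two replicates. At day 14, dry weight of treated versus untreated plants gives % herbicidal rate.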

Structure (SMILES) | Herbicidal rate (%) Echinochloa crus-galli
Cc1c(Cc2cc(Cl)ccc2NS(=O)(=O)C(F)(F)F)c(=O)on1C(C)C [Compound 1-41] | 100%
Cc1c(Cc2ccccc2N(C(=O)C(C)C)S(=O)(=O)C(F)(F)F)c(=O)on1C(C)(C)C [Compound 1-329] | 90%
CCC(C)n1oc(=O)c(Cc2ccccc2N(C(=O)OCc2ccccc2)S(=O)(=O)C(F)(F)F)c1C (single isomer, unassigned) [1-783 (TLC bottom)] | 90%

The compounds below were run on Scirpus juncoides in the same assay as above. Settings: 120 g/10a active ingredient, dry weight vs untreated area, 14 days after treatment.
Type: in vivo
Summary of the method: as §1

Structure (SMILES) | Herbicidal rate (%) Scirpus juncoides
Cc1c(Cc2cc(Cl)ccc2NS(=O)(=O)C(F)(F)F)c(=O)on1C(C)C [Compound 1-41] | 100%
Cc1c(Cc2ccccc2N(C(=O)C(C)C)S(=O)(=O)C(F)(F)F)c(=O)on1C(C)(C)C [Compound 1-329] | 90%
CCC(C)n1oc(=O)c(Cc2ccccc2N(C(=O)OCc2ccccc2)S(=O)(=O)C(F)(F)F)c1C (single isomer, unassigned) [1-783 (TLC bottom)] | 90%

The compounds below were run on broad leaf weeds (Lindernia pyxidaria and Monochoria vaginalis) in the same assay as above. Settings: Lindernia pyxidaria, 120 g/10a active ingredient, dry weight vs untreated area, 14 days after treatment.
Type: in vivo
Summary of the method: as §1

Structure (SMILES) | Herbicidal rate (%) Lindernia pyxidaria
Cc1c(Cc2cc(Cl)ccc2NS(=O)(=O)C(F)(F)F)c(=O)on1C(C)C [Compound 1-41] | 100%
Cc1c(Cc2ccccc2N(C(=O)C(C)C)S(=O)(=O)C(F)(F)F)c(=O)on1C(C)(C)C [Compound 1-329] | 90%
CCC(C)n1oc(=O)c(Cc2ccccc2N(C(=O)OCc2ccccc2)S(=O)(=O)C(F)(F)F)c1C (single isomer, unassigned) [1-783 (TLC bottom)] | 90%

Same assay, conditions: Monochoria vaginalis, 120 g/10a active ingredient, dry weight vs untreated area, 14 days after treatment

Structure (SMILES) | Herbicidal rate (%) Monochoria vaginalis
Cc1c(Cc2cc(Cl)ccc2NS(=O)(=O)C(F)(F)F)c(=O)on1C(C)C [Compound 1-41] | 100%
Cc1c(Cc2ccccc2N(C(=O)C(C)C)S(=O)(=O)C(F)(F)F)c(=O)on1C(C)(C)C [Compound 1-329] | 90%
CCC(C)n1oc(=O)c(Cc2ccccc2N(C(=O)OCc2ccccc2)S(=O)(=O)C(F)(F)F)c1C (single isomer, unassigned) [1-783 (TLC bottom)] | 90%

The compounds below were run on Echinochloa crus-galli (assay: Test Example 2: herbicidal effect test by treatment during growing period in paddy rice cultivation (seven days after seeding)). Settings: 120 g/10a active ingredient, assessed 14 days after treatment, dry weight vs untreated area.
Type: in vivo
Summary of the method: (§2)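 Post-emergence paddy water application: compounds were formulated as emulsions, diluted and dropped into flooded pots seven days after sowing at a rate equivalent to 120 g per 10 ares. Efficacy was taken as dry-weight reduction relative to untreated controls after 14 days.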

Structure (SMILES) | Herbicidal rate (%) Echinochloa crus-galli
Cc1c(Cc2cc(Cl)ccc2NS(=O)(=O)C(F)(F)F)c(=O)on1C(C)C [Compound 1-41] | 90%
Cc1c(Cc2ccccc2N(C(=O)C(C)C)S(=O)(=O)C(F)(F)F)c(=O)on1C(C)(C)C [Compound 1-329] | 90%
CCC(C)n1oc(=O)c(Cc2ccccc2N(C(=O)OCc2ccccc2)S(=O)(=O)C(F)(F)F)c1C (single isomer, unassigned) [1-783 (TLC bottom)] | 90%

The compounds below were run on Scirpus juncoides in the same assay as above. Settings: 120 g/10a active ingredient, assessed 14 days after treatment, dry weight vs untreated area.
Type: in vivo
Summary of the method: as §2

Structure (SMILES) | Herbicidal rate (%) Scirpus juncoides
Cc1c(Cc2cc(Cl)ccc2NS(=O)(=O)C(F)(F)F)c(=O)on1C(C)C [Compound 1-41] | 60%
Cc1c(Cc2ccccc2N(C(=O)C(C)C)S(=O)(=O)C(F)(F)F)c(=O)on1C(C)(C)C [Compound 1-329] | 90%
CCC(C)n1oc(=O)c(Cc2ccccc2N(C(=O)OCc2ccccc2)S(=O)(=O)C(F)(F)F)c1C (single isomer, unassigned) [1-783 (TLC bottom)] | 90%

The compounds below were run on broad leaf weeds (Lindernia pyxidaria and Monochoria vaginalis) in the same assay as above. Settings: Lindernia pyxidaria, 120 g/10a active ingredient, assessed 14 days after treatment, dry weight vs untreated area.
Type: in vivo
Summary of the method: as §2

Structure (SMILES) | Herbicidal rate (%) Lindernia pyxidaria
Cc1c(Cc2cc(Cl)ccc2NS(=O)(=O)C(F)(F)F)c(=O)on1C(C)C [Compound 1-41] | 90%
Cc1c(Cc2ccccc2N(C(=O)C(C)C)S(=O)(=O)C(F)(F)F)c(=O)on1C(C)(C)C [Compound 1-329] | 90%
CCC(C)n1oc(=O)c(Cc2ccccc2N(C(=O)OCc2ccccc2)S(=O)(=O)C(F)(F)F)c1C (single isomer, unassigned) [1-783 (TLC bottom)] | 90%

Same assay, conditions: Monochoria vaginalis, 120 g/10a active ingredient, assessed 14 days after treatment, dry weight vs untreated area

Structure (SMILES) | Herbicidal rate (%) Monochoria vaginalis
Cc1c(Cc2cc(Cl)ccc2NS(=O)(=O)C(F)(F)F)c(=O)on1C(C)C [Compound 1-41] | 80%
Cc1c(Cc2ccccc2N(C(=O)C(C)C)S(=O)(=O)C(F)(F)F)c(=O)on1C(C)(C)C [Compound 1-329] | 90%
CCC(C)n1oc(=O)c(Cc2ccccc2N(C(=O)OCc2ccccc2)S(=O)(=O)C(F)(F)F)c1C (single isomer, unassigned) [1-783 (TLC bottom)] | 90%

The compounds below were run on Amaranthus viridis (assay: Test Example 3: herbicidal effect test by treatment of dry field farming soil (one day after seeding)). Settings: 120 g/10a active ingredient, evaluated 14 days after treatment.
Type: in vivo
Summary of the method: (§3)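 Dry-field alluvium pots; weed seeds incorporated in top 1 cm; soil spray of diluted emulsion 1 d after seeding, 120 g a.i./10 a in 100 L/10 a. Readout: % reduction of dry weight vs untreated, day 14, duplicates.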

Structure (SMILES) | herbicidal rate, Amaranthus viridis
Cc1c(Cc2cc(Cl)ccc2NS(=O)(=O)C(F)(F)F)c(=O)on1C(C)C [Compound 1-41] | 0%
Cc1c(Cc2ccccc2N(C(=O)C(C)C)S(=O)(=O)C(F)(F)F)c(=O)on1C(C)(C)C [Compound 1-329] | 90%
CCC(C)n1oc(=O)c(Cc2ccccc2N(C(=O)OCc2ccccc2)S(=O)(=O)C(F)(F)F)c1C (single isomer, unassigned) [1-783 (TLC bottom)] | 90%

What follows are compounds tested on Chenopodium album in the same assay as above. Settings: 120 g/10a active ingredient, evaluated 14 days after treatment.
Type: in vivo
Summary of the method: as §3

Structure (SMILES) | herbicidal rate, Chenopodium album
Cc1c(Cc2cc(Cl)ccc2NS(=O)(=O)C(F)(F)F)c(=O)on1C(C)C [Compound 1-41] | 50%
Cc1c(Cc2ccccc2N(C(=O)C(C)C)S(=O)(=O)C(F)(F)F)c(=O)on1C(C)(C)C [Compound 1-329] | 90%
CCC(C)n1oc(=O)c(Cc2ccccc2N(C(=O)OCc2ccccc2)S(=O)(=O)C(F)(F)F)c1C (single isomer, unassigned) [1-783 (TLC bottom)] | 90%

The compounds below were run on Echinochloa crus-galli in the same assay as above. Settings: 120 g/10a active ingredient, evaluated 14 days after treatment.
Type: in vivo
Summary of the method: as §3

Structure (SMILES) | herbicidal rate, Echinochloa crus-galli
Cc1c(Cc2cc(Cl)ccc2NS(=O)(=O)C(F)(F)F)c(=O)on1C(C)C [Compound 1-41] | 90%
Cc1c(Cc2ccccc2N(C(=O)C(C)C)S(=O)(=O)C(F)(F)F)c(=O)on1C(C)(C)C [Compound 1-329] | 90%
CCC(C)n1oc(=O)c(Cc2ccccc2N(C(=O)OCc2ccccc2)S(=O)(=O)C(F)(F)F)c1C (single isomer, unassigned) [1-783 (TLC bottom)] | 90%

The compounds below were run on southern crabgrass in the same assay as above. Settings: 120 g/10a active ingredient, evaluated 14 days after treatment.
Type: in vivo
Summary of the method: as §3

Structure (SMILES) | herbicidal rate, southern crabgrass
Cc1c(Cc2cc(Cl)ccc2NS(=O)(=O)C(F)(F)F)c(=O)on1C(C)C [Compound 1-41] | 90%
Cc1c(Cc2ccccc2N(C(=O)C(C)C)S(=O)(=O)C(F)(F)F)c(=O)on1C(C)(C)C [Compound 1-329] | 90%
CCC(C)n1oc(=O)c(Cc2ccccc2N(C(=O)OCc2ccccc2)S(=O)(=O)C(F)(F)F)c1C (single isomer, unassigned) [1-783 (TLC bottom)] | 90%

What follows are compounds tested on Amaranthus viridis (assay: Test Example 4: herbicidal effect test by treatment of leave and stem in dry field farming (seven days after seeding)). Settings: 120 g/10a active ingredient; emulsion sprayed seven days after seeding; evaluated 14 days after treatment.
Type: in vivo
Summary of the method: (§4)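 Duplicate pots were scored 14 days post-spray by dry weight, herbicidal rate = {1 − treated/untreated average dry weight} × 100. The water-diluted emulsion, equivalent to 120 g active ingredient per 10 ares in 100 L, was applied seven days after sowing 20 seeds each into the upper 1 cm of alluvial soil.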

Structure (SMILES) | herbicidal effect (herbicidal rate), Amaranthus viridis
Cc1c(Cc2cc(Cl)ccc2NS(=O)(=O)C(F)(F)F)c(=O)on1C(C)C [Compound 1-41] | 60%
Cc1c(Cc2ccccc2N(C(=O)C(C)C)S(=O)(=O)C(F)(F)F)c(=O)on1C(C)(C)C [Compound 1-329] | 40%
CCC(C)n1oc(=O)c(Cc2ccccc2N(C(=O)OCc2ccccc2)S(=O)(=O)C(F)(F)F)c1C (single isomer, unassigned) [1-783 (TLC bottom)] | 40%

What follows are compounds tested on Chenopodium album in the same assay as above. Settings: 120 g/10a active ingredient; emulsion sprayed seven days after seeding; evaluated 14 days after treatment.
Type: in vivo
Summary of the method: as §4

Structure (SMILES) | herbicidal effect (herbicidal rate), Chenopodium album
Cc1c(Cc2cc(Cl)ccc2NS(=O)(=O)C(F)(F)F)c(=O)on1C(C)C [Compound 1-41] | 90%
Cc1c(Cc2ccccc2N(C(=O)C(C)C)S(=O)(=O)C(F)(F)F)c(=O)on1C(C)(C)C [Compound 1-329] | 40%
CCC(C)n1oc(=O)c(Cc2ccccc2N(C(=O)OCc2ccccc2)S(=O)(=O)C(F)(F)F)c1C (single isomer, unassigned) [1-783 (TLC bottom)] | 40%

These compounds were tested on Echinochloa crus-galli in the same assay as above. Settings: 120 g/10a active ingredient; emulsion sprayed seven days after seeding; evaluated 14 days after treatment.
Type: in vivo
Summary of the method: as §4

Structure (SMILES) | herbicidal effect (herbicidal rate), Echinochloa crus-galli
Cc1c(Cc2cc(Cl)ccc2NS(=O)(=O)C(F)(F)F)c(=O)on1C(C)C [Compound 1-41] | 90%
Cc1c(Cc2ccccc2N(C(=O)C(C)C)S(=O)(=O)C(F)(F)F)c(=O)on1C(C)(C)C [Compound 1-329] | 90%
CCC(C)n1oc(=O)c(Cc2ccccc2N(C(=O)OCc2ccccc2)S(=O)(=O)C(F)(F)F)c1C (single isomer, unassigned) [1-783 (TLC bottom)] | 90%

Each compound was assayed on southern crabgrass in the same assay as above. Settings: 120 g/10a active ingredient; emulsion sprayed seven days after seeding; evaluated 14 days after treatment.
Type: in vivo
Summary of the method: as §4

Structure (SMILES) | herbicidal effect (herbicidal rate), southern crabgrass
Cc1c(Cc2cc(Cl)ccc2NS(=O)(=O)C(F)(F)F)c(=O)on1C(C)C [Compound 1-41] | 90%
Cc1c(Cc2ccccc2N(C(=O)C(C)C)S(=O)(=O)C(F)(F)F)c(=O)on1C(C)(C)C [Compound 1-329] | 90%
CCC(C)n1oc(=O)c(Cc2ccccc2N(C(=O)OCc2ccccc2)S(=O)(=O)C(F)(F)F)c1C (single isomer, unassigned) [1-783 (TLC bottom)] | 90%
